Several values for one entry are separate records, joined by “and”; a condition that tells them apart may be missing. Equal values may be shown once.
Test system: guinea pig gastric mucosa
Test: Histamine-induced gastric acid secretion of isolated guinea pig gastric mucosa in Ussing chambers, pH stat method
Type: cell-based, guinea pigs
Conditions: for Ratio of pre- and post histamine treatment acid secretion (mean SEM): relative to 30 minute period prior to histamine
Experimental: Unfasted female guinea pigs (205-330 g) were killed by cervical dislocation and the stomachs were removed. The antrum was discarded and the stomach was rinsed clean with several washes of mammalian Ringer's solution at 37° C. The stomach was hemisected along the greater and lesser curvatures and the mucosa was separated from the seromuscularis with a pair of fine forceps. Mucosae from both sides were stretched and separately mounted in Lucite Ussing chambers (diameter 1.6 cm) and the assembled chambers were connected to water jacketted gas-lift incubators. The nutrient (submucosal) surface was bathed in 15 ml of a solution containing: 122 mM NaCl, 25.0 mM NaHCO3, 5.0 mM KCl, […] MgSO4, 2.0 mM CaCl2, 1.0 mM KH2 PO4, 20.0 mM glucose, and 100 ug/ml gentamycin sulphate (Garamycin). The solution was gassed with 95% O2 -5% CO2 bubbled through distilled water which maintained pH at 7.45-7.55. The luminal (mucosal) surface was bathed in 15 ml unbuffered saline (150 mM NaCl) which was gassed with 100% O2 passed through 500 mM NaOH to remove CO2. Gastric acid secretion was measured by the pH stat method. pH was held at 4.5 with a pH stat coupled to an autoburette and acid secretion was determined by the amount of NaOH necessary to maintain pH in the luminal solution. All solutions were maintained at 37° C. with a heated water circulator. Tissues were initially allowed to stabilize in the chambers a minimum of 2 hours. Saline with or without alpha TGF (60 ng/ml final concentration) was then added to the nutrient bath and the basal rate of acid secretion was monitored for 30 minutes. Twenty-one paired sets of tissue specimens from the same animal were employed, one receiving alpha-TGF, the other serving as control. All tissues were then treated with histamine (10^-4 M) and acid secretion was measured for an additional 3 hours. When calculated in terms of absolute levels of acid secretion, differences between control and TGF-treated tissues were significant (p<0.05) at 120, 150, and 180 minutes.

## alpha-transforming growth factor [TGF]
0 min., alpha TGF 60 ng/ml
  Ratio of pre- and post histamine treatment acid secretion (mean SEM): 1.00 ± 0.00
0 time, basal rate before histamine, alpha TGF 60 ng/ml in nutrient bath, n=21
  Gastric acid secretion (mean ± SEM): 1.80 ± 0.21 uEq./cm^2 /hr
30 min. after histamine 10^-4 M, alpha TGF 60 ng/ml
  Gastric acid secretion (mean ± SEM): 2.09 ± 0.24 uEq./cm^2 /hr
30 min., alpha TGF 60 ng/ml
  Ratio of pre- and post histamine treatment acid secretion (mean SEM): 1.17 ± 0.04
30 minutes before histamine, alpha TGF 60 ng/ml
  Effect on the basal rate of acid secretion: no effect
60 min. (one hour), alpha TGF 60 ng/ml
  Ratio of pre- and post histamine treatment acid secretion (mean SEM): 1.48 ± 0.11 and 1.49±0.11
60 min. after histamine 10^-4 M, alpha TGF 60 ng/ml
  Gastric acid secretion (mean ± SEM): 2.62 ± 0.35 uEq./cm^2 /hr
90 min. after histamine 10^-4 M, alpha TGF 60 ng/ml
  Gastric acid secretion (mean ± SEM): 2.97 ± 0.38 uEq./cm^2 /hr
90 min., alpha TGF 60 ng/ml
  Ratio of pre- and post histamine treatment acid secretion (mean SEM): 1.67 ± 0.12
120 min. (two hours), alpha TGF 60 ng/ml
  Ratio of pre- and post histamine treatment acid secretion (mean SEM): 1.68 ± 0.11
120 min. after histamine 10^-4 M, alpha TGF 60 ng/ml
  Gastric acid secretion (mean ± SEM): 2.97 ± 0.35 uEq./cm^2 /hr
150 min. after histamine 10^-4 M, alpha TGF 60 ng/ml
  Gastric acid secretion (mean ± SEM): 3.04 ± 0.37 uEq./cm^2 /hr
150 min., alpha TGF 60 ng/ml
  Ratio of pre- and post histamine treatment acid secretion (mean SEM): 1.73 ± 0.12
180 min. (three hours), alpha TGF 60 ng/ml
  Ratio of pre- and post histamine treatment acid secretion (mean SEM): 1.81 ± 0.27
180 min. after histamine 10^-4 M, alpha TGF 60 ng/ml
  Gastric acid secretion (mean ± SEM): 3.16 ± 0.68 uEq./cm^2 /hr

Reference: US4749683A, “Inhibition of gastric acid secretion with alpha-transforming growth factor” (President and Fellows of Harvard College, priority 1986, dated 1988)
